This is an account of results in patent US10508120B2, “TYK2 inhibitors and uses thereof” (Nimbus Lakshmi, Inc., priority 2017, dated 2019).

SMILES strings stand for the structures.

One assay addresses JAK2 kinase domain (JH1) (Homo sapiens (Human), UniProt O60674). Briefly: JAK2 Radioactive Kinase Assay. It is filed as biochemical. The note with it: 10 μM compound, 10 μM ATP; for inhibition at 10 µM: read-out: JAK2 JH1% Inhibition @ 10 μM. As for the experimental part:
The Tyk2 and JAK2 radioactive kinase assay measures the percent inhibition at the Tyk2 kinase domain (DH1) and the percent inhibition at the JAK2 kinase domain (JH1). Results of the assay are expressed as percent inhibition at 10 μM.

The target of assay [1] is human TYK2 (JH2domain-pseudokinase) (Homo sapiens (Human), UniProt P29597). Briefly: TYK2 JH2 Domain Binding Assay (KINOMEscan). In outline:
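Competition binding of a DNA-tagged fusion of human TYK2 JH2 pseudokinase (G556–D888) with NFkB DNA-binding domain, from HEK293 extracts (<0.1 nM final), against immobilised ligand beads; 1 h shaking at room temperature, 0.9% DMSO. Bound kinase quantified by qPCR.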

human TYK2 (JH2domain-pseudokinase), sequence (P29597 556-888): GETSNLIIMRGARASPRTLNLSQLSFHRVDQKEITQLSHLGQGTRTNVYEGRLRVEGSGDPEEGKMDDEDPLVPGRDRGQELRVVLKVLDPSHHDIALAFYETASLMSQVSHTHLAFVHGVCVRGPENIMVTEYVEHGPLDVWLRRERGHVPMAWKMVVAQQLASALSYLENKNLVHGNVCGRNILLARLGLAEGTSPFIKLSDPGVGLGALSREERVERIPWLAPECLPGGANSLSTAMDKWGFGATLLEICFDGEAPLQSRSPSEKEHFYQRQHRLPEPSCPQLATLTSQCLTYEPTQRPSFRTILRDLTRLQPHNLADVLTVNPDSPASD
JAK2 kinase domain (JH1), sequence (O60674 849-1124): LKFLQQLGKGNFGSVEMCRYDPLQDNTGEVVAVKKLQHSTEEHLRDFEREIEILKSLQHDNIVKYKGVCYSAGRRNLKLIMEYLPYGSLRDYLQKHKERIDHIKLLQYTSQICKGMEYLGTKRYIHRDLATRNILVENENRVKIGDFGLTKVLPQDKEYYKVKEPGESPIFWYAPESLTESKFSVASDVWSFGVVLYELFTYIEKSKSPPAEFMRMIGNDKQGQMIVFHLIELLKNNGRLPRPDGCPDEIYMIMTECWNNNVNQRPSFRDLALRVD

For the molecule `CNc1cc(Nc2cccn([C@H]3CCCOC3)c2=O)nc2c(C(=O)N[C@@H]3CC[C@H]3OC)cnn12` [I-876], the “JAK2 JH1% Inhibition @ 10 μM” value on JAK2 kinase domain (JH1) was “A (percent inhibition at 10 μM lower than 50)”.
As a reminder, the inhibition is the share of the control response that was lost under treatment. As for `CNc1cc(Nc2cccn(-c3cccnc3C)c2=O)nc2c(C(=O)N[C@@H]3CC[C@H]3OC)cnn12` [I-925], the inhibition at 10 µM on JAK2 kinase domain (JH1) was under 50%.
In the case of `CNc1cc(Nc2cccn(-c3cncc(F)c3)c2=O)nc2c(C(=O)N[C@H]3CC[C@@H]3OC)cnn12` [I-1084], the inhibition at 10 µM at JAK2 kinase domain (JH1) is under 50%.
The same measure, in the same setting: next, `CNc1cc(Nc2cccn([C@@H]3CCCOC3)c2=O)nc2c(C(=O)N[C@H]3CC[C@@H]3OC)cnn12` [I-903, N-((1S,2S)-2-methoxycyclobutyl)-7-(methylamino)-5-((2-oxo-1-((R)-tetrahydro-2H-pyran-3-yl)-1,2-dihydropyridin-3-yl)amino)pyrazolo[1,5-a]pyrimidine-3-carboxamide]: under 50%; `CNc1cc(Nc2cccn(-c3cncc(F)c3)c2=O)nc2c(C(=O)N[C@@H]3CC[C@H]3OC)cnn12` [I-1085]: under 50%.
On to `CNc1cc(Nc2cccn(-c3cccnc3C)c2=O)nc2c(C(=O)N[C@H]3CC[C@@H]3OC)cnn12` [I-924], for which, on JAK2 kinase domain (JH1), the “JAK2 JH1% Inhibition @ 10 μM” value is “A (percent inhibition at 10 μM lower than 50)”.
As to `CNc1cc(Nc2cccn(-c3cccnc3C)c2=O)nc2c(C(=O)N[C@H]3CC[C@@H]3OC)cnn12` [I-865], on JAK2 kinase domain (JH1), the inhibition at 10 µM was under 50%.
A word on the Kd: it is a measure of binding affinity in units of concentration. In the case of `CNc1cc(-c2cn([C@H]3CCC[C@@H]3OC)c3ncccc23)nc2c(C(=O)NC3CCC3O)cnn12` (mixture of isomers) [I-1340, N-(2-hydroxycyclobutyl)-5-(1-((1S,2S)-2-methoxycyclopentyl)-1H-pyrrolo[2,3-b]pyridin-3-yl)-7-(methylamino)pyrazolo[1,5-a]pyrimidine-3-carboxamide], the Kd in assay [1] is 1 to 10 nM.
On the same count and under the same terms, next, `CNc1cc(Nc2cccn(C(C)C)c2=O)nc2c(C(=O)N[C@@H]3CC[C@H](O)C3)cnn12` [I-1266]: under 0.2 nM.
On the same count and under the same terms, next, `CNc1cc(Nc2cccn([C@H]3CC[C@@H](OC)CC3)c2=O)nc2c(C(=O)N[C@H]3CC[C@H]3O)cnn12` [I-1292]: under 0.2 nM; `CNc1cc(Nc2cccn([C@@H]3CCCN(CCC#N)C3)c2=O)nc2c(C(=O)NC3CC3)cnn12` [I-1346, (R)-5-((1-(1-(2-cyanoethyl)piperidin-3-yl)-2-oxo-1,2-dihydropyridin-3-yl)amino)-N-cyclopropyl-7-(methylamino)pyrazolo[1,5-a]pyrimidine-3-carboxamide]: under 0.2 nM.
Turning to `CNc1cc(Nc2cccn(C(C)C)c2=O)nc2c(C(=O)N[C@@H]3CCC[C@@]3(C)O)cnn12` [I-1240], the Kd in assay [1] was under 0.2 nM.
In the case of `CNc1cc(Nc2cccn([C@H]3CC[C@H]3O)c2=O)nc2c(C(=O)N[C@H]3CC[C@@H]3OC)cnn12` [I-1345], the Kd in assay [1] is under 0.2 nM.
Molecule `CNc1cc(Nc2cccn(-c3cccc(F)c3)c2=O)nc2c(C(=O)N[C@H]3COC[C@H]3O)cnn12` [I-1407] registered a Kd in assay [1] of under 0.2 nM.
Regarding `CNc1cc(Nc2cccn([C@H]3CC[C@H]3O)c2=O)nc2c(C(=O)N[C@@H]3C[C@@H]3F)cnn12` [I-1284], the Kd in assay [1] fell in the range of 0.2 to 1 nM.
On the same count and under the same terms, next, `CNc1cc(Nc2cccn(-c3ccc(C)nc3)c2=O)nc2c(C(=O)N[C@@H]3CCC[C@@H](OC)C3)cnn12` [I-1189]: under 0.2 nM; `CNc1cc(-c2cn(CCCO)c3ncc(F)cc23)nc2c(C(=O)N[C@@H]3CC[C@H]3OC)cnn12` [I-1229]: under 0.2 nM; `CNc1cc(Nc2cccn([C@H]3CCCOC3)c2=O)nc2c(C(=O)N[C@@H]3C[C@H]3OC)cnn12` [I-1248]: under 0.2 nM.
In assay [1], `CNc1cc(Nc2cccn([C@@H]3CCCN(CCF)C3)c2=O)nc2c(C(=O)N[C@@H]3CC[C@H]3OC)cnn12` [I-1383] gave a Kd of 1 to 10 nM.
In assay [1], `CNc1cc(Nc2cccn([C@@H]3C[C@H]3F)c2=O)nc2c(C(=O)N[C@H]3CC[C@@H]3O)cnn12` [I-1401] returned a Kd of under 0.2 nM.
On the same count and under the same terms, the result for `CNc1cc(-c2cn(C3CCOCC3)c3ncccc23)nc2c(C(=O)N[C@H]3COC[C@H]3O)cnn12` [I-1308] reads over 10 nM.
On the same count and under the same terms, the result for `CNc1cc(Nc2cccn([C@H]3CCC[C@H]3OC)c2=O)nc2c(C(=O)NC3CC3)cnn12` [I-525] reads over 10 nM.
The same measure, in the same setting: the result for `CNc1cc(-c2cn([C@@H]3CCCOC3)c3ncccc23)nc2c(C(=O)N[C@@H]3COC[C@@H]3O)cnn12` [I-1184] reads under 0.2 nM; that for `CNc1cc(Nc2cccn3ccnc23)nc2c(C(=O)N[C@H]3COC[C@H]3O)cnn12` [I-1313], over 10 nM; that for `CCO[C@@H]1CC[C@H]1NC(=O)c1cnn2c(NC)cc(Nc3cccn(-c4ccccn4)c3=O)nc12` [I-1294], under 0.2 nM.
As to `CNc1cc(-c2cn(C(C)C)c3ncccc23)nc2c(C(=O)N[C@H]3CC[C@@]3(C)O)cnn12` [I-1409], in assay [1], the Kd lay in the range of 0.2 to 1 nM.
On the same count and under the same terms, the result for `CNc1cc(Nc2cccn([C@@H]3CCN(CCF)C3)c2=O)nc2c(C(=O)N[C@H]3CC[C@@H]3OC)cnn12` [I-1332] reads 1 to 10 nM; that for `CNc1cc(Nc2cccn(C3CC(F)(F)C3)c2=O)nc2c(C(=O)N[C@@H]3CC[C@@H](O)C3)cnn12` [I-1211], under 0.2 nM; that for `CNc1cc(-c2cn(C3CCOCC3)c3ncccc23)nc2c(C(=O)N[C@@H]3COC[C@@H]3O)cnn12` [I-1307], under 0.2 nM.
On the same count and under the same terms, next, `CNc1cc(Nc2cccn(C3CC(F)(F)C3)c2=O)nc2c(C(=O)N[C@H]3COC[C@H]3O)cnn12` [I-1206]: 1 to 10 nM; `CNc1cc(Nc2cccn3ccnc23)nc2c(C(=O)N[C@H]3COC[C@H]3O)cnn12` [I-1262]: 1 to 10 nM; `CNc1cc(Nc2cccn(C3CCOCC3)c2=O)nc2c(C(=O)N[C@@H]3CCC[C@@H](O)C3)cnn12` [I-1226]: 1 to 10 nM.
The same measure, in the same setting: the result for `CNc1cc(Nc2cccn([C@H]3CC[C@@H]3O)c2=O)nc2c(C(=O)N[C@@H]3CC[C@H]3OC)cnn12` [I-1384] reads 0.2 to 1 nM; that for `CNc1cc(-c2cn([C@@H]3CCCOC3)c3ncccc23)nc2c(C(=O)N[C@@H]3CC[C@H]3OC)cnn12` [I-1267], under 0.2 nM; that for `CNc1cc(-c2cn([C@@H]3CCC[C@H]3OC)c3ncccc23)nc2c(C(=O)N[C@@H]3CC[C@@H]3O)cnn12` [I-1247, N-((1R,2S)-2-hydroxycyclobutyl)-5-(1-((1R,2R)-2-methoxycyclopentyl)-1H-pyrrolo[2,3-b]pyridin-3-yl)-7-(methylamino)pyrazolo[1,5-a]pyrimidine-3-carboxamide], under 0.2 nM.
With `CNc1cc(Nc2cccn(C3CC(F)(F)C3)c2=O)nc2c(C(=O)N[C@H]3CC[C@@H]3O)cnn12` [I-1390], in assay [1], the Kd was 1 to 10 nM.
Same read-out and setting: next, `CNc1cc(Nc2cccn([C@@H]3C[C@H]3OC)c2=O)nc2c(C(=O)N[C@H]3CC[C@@H]3OC)cnn12` [I-1233]: 1 to 10 nM; `CNc1cc(Nc2cccn(C3CCOCC3)c2=O)nc2c(C(=O)N[C@@H]3CC[C@H](O)C3)cnn12` [I-1264]: 1 to 10 nM; `CNc1cc(-c2cn([C@@H]3CCCOC3)c3ncccc23)nc2c(C(=O)N[C@H]3CC[C@@H]3OC)cnn12` [I-1268]: over 10 nM.
Same read-out and setting: next, `CNc1cc(-c2cn([C@H]3CCCOC3)c3ncccc23)nc2c(C(=O)N[C@@H]3CC[C@H]3OC)cnn12` [I-1282]: 1 to 10 nM; `CNc1cc(-c2cn(C3CCOCC3)c3ncccc23)nc2c(C(=O)N[C@H]3CCC[C@]3(C)O)cnn12` [I-1336]: 1 to 10 nM.
The same measure, in the same setting: the result for `CNc1cc(-c2cn([C@@H]3CCN(CCF)C3)c3ncccc23)nc2c(C(=O)NC3CC3)cnn12` [I-1367, (R)—N-cyclopropyl-5-(1-(1-(2-fluoroethyl)pyrrolidin-3-yl)-1H-pyrrolo[2,3-b]pyridin-3-yl)-7-(methylamino)pyrazolo[1,5-a]pyrimidine-3-carboxamide] reads under 0.2 nM.
Consider `CNc1cc(Nc2cccn([C@H]3CCCOC3)c2=O)nc2c(C(=O)N[C@H]3C[C@@H]3OC)cnn12` [I-1249], for which, in assay [1], the Kd was under 0.2 nM.
The molecule `CNc1cc(Nc2cccn(C3CCOCC3)c2=O)nc2c(C(=O)N[C@H]3CCC[C@]3(C)O)cnn12` (stereo in doubt) [I-1254, N-(2-hydroxy-2-methylcyclopentyl)-7-(methylamino)-5-((2-oxo-1-(tetrahydro-2H-pyran-4-yl)-1,2-dihydropyridin-3-yl)amino)pyrazolo[1,5-a]pyrimidine-3-carboxamide] gave a Kd in assay [1] of 0.2 to 1 nM.
In turn, `CNc1cc(Nc2cccn([C@H]3CCC[C@@H](O)C3)c2=O)nc2c(C(=O)N[C@@H]3CC[C@H]3OC)cnn12` [I-1192] gave a Kd in assay [1] of under 0.2 nM.
In assay [1], `CNc1cc(Nc2cccn([C@H]3CC[C@H]3O)c2=O)nc2c(C(=O)N[C@H]3CC[C@@H]3OC)cnn12` [I-1410] had a Kd of under 0.2 nM.
On the same count and under the same terms, next, `CNc1cc(-c2cn(C3CCOCC3)c3ncccc23)nc2c(C(=O)N[C@H]3CC[C@@H]3OC)cnn12` [I-1329]: over 10 nM.
Molecule `CNc1cc(Nc2cccn(C3CCOCC3)c2=O)nc2c(C(=O)N[C@H]3CC[C@@H](O)C3)cnn12` [I-1263] showed a dissociation constant Kd in assay [1] of under 0.2 nM.
On to `CNc1cc(Nc2cccn(C3CCOCC3)c2=O)nc2c(C(=O)N[C@@H]3CCC[C@@](C)(OC)C3)cnn12` (stereo in doubt) [I-1274, N-(3-methoxy-3-methylcyclohexyl)-7-(methylamino)-5-((2-oxo-1-(tetrahydro-2H-pyran-4-yl)-1,2-dihydropyridin-3-yl)amino)pyrazolo[1,5-a]pyrimidine-3-carboxamide], for which, in assay [1], the Kd was under 0.2 nM.
Still for that read-out and setting: the result for `CNc1cc(Nc2cccn(C(C)C)c2=O)nc2c(C(=O)N[C@H]3COC[C@H]3O)cnn12` [I-1406] reads over 10 nM; that for `CNc1cc(Nc2cccn(C(C)C)c2=O)nc2c(C(=O)N[C@@H]3COC[C@@H]3O)cnn12` [I-1301], 0.2 to 1 nM.
On the same count and under the same terms, the result for `CNc1cc(Nc2cccn([C@@H]3C[C@H]3OC)c2=O)nc2c(C(=O)NC3CC3)cnn12` [I-1227] reads under 0.2 nM.
